Results: PubChem BioAssay (NCI)
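In this assay, cells in 96-well plates receive the compound at five concentrations for 48 hours. Endpoints are linearly interpolated between the surrounding concentrations. Abbreviation: GI50, concentration required for 50% inhibition of growth. TGI marks complete inhibition of growth.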

How the values were obtained:
Assay in all cases: NCI tumour cell line growth inhibition, 48 h
SNB-75 CNS = test system: SNB-75 CNS
UO-31 renal = test system: UO-31 renal
UACC-62 melanoma = test system: UACC-62 melanoma
HOP-92 NSCLC = test system: HOP-92 NSCLC
NCI-H226 lung = test system: NCI-H226 lung
MDA-MB-231 breast = test system: MDA-MB-231 breast
SK-MEL-5 melanoma = test system: SK-MEL-5 melanoma
EKVX NSCLC = test system: EKVX NSCLC
OVCAR-8 ovarian = test system: OVCAR-8 ovarian
HOP-62 NSCLC = test system: HOP-62 NSCLC
RPMI-8226 leukemia = test system: RPMI-8226 leukemia
HCT-116 colon = test system: HCT-116 colon
MOLT-4 leukemia = test system: MOLT-4 leukemia
NCI-H460 lung = test system: NCI-H460 lung
MCF7 breast = test system: MCF7 breast
COLO 205 colon = test system: COLO 205 colon
IGROV1 ovarian = test system: IGROV1 ovarian
SK-MEL-28 melanoma = test system: SK-MEL-28 melanoma
ACHN renal = test system: ACHN renal
CAKI-1 renal = test system: CAKI-1 renal
DU-145 prostate = test system: DU-145 prostate
K-562 leukemia = test system: K-562 leukemia
HT29 colon = test system: HT29 colon
MDA-MB-435 = test system: MDA-MB-435
MDA-MB-468 breast = test system: MDA-MB-468 breast
SF-295 CNS = test system: SF-295 CNS
CCRF-CEM leukemia = test system: CCRF-CEM leukemia
NCI-H522 lung = test system: NCI-H522 lung
TK-10 renal = test system: TK-10 renal
RXF 393 renal = test system: RXF 393 renal
786-0 renal = test system: 786-0 renal
SNB-19 CNS = test system: SNB-19 CNS
SF-539 CNS = test system: SF-539 CNS
HS 578T breast = test system: HS 578T breast
SK-OV-3 ovarian = test system: SK-OV-3 ovarian
A549 NSCLC = test system: A549 NSCLC
SR leukemia = test system: SR leukemia
HL-60(TB) leukemia = test system: HL-60(TB) leukemia
M14 melanoma = test system: M14 melanoma
HCT-15 colon = test system: HCT-15 colon
OVCAR-4 ovarian = test system: OVCAR-4 ovarian
SF-268 CNS = test system: SF-268 CNS
PC-3 prostate = test system: PC-3 prostate
SK-MEL-2 melanoma = test system: SK-MEL-2 melanoma
OVCAR-5 ovarian = test system: OVCAR-5 ovarian
U251 CNS = test system: U251 CNS
SW-620 colon = test system: SW-620 colon
NCI-H23 lung = test system: NCI-H23 lung
BT-549 breast = test system: BT-549 breast
MALME-3M melanoma = test system: MALME-3M melanoma
OVCAR-3 ovarian = test system: OVCAR-3 ovarian
LOX IMVI melanoma = test system: LOX IMVI melanoma
HCC-2998 colon = test system: HCC-2998 colon
A498 renal = test system: A498 renal
SN12C renal = test system: SN12C renal
KM12 colon = test system: KM12 colon
NCI/ADR-RES ovarian = test system: NCI/ADR-RES ovarian

## CNc1nc2ccccc2n2c(-c3ccc(O)c(O)c3)cnc12
SNB-75 CNS
  GI50: < 10 nM
  TGI: 14800 nM
UO-31 renal
  GI50: < 10 nM
  TGI: 15900 nM
UACC-62 melanoma
  GI50: < 10 nM
  TGI: 5090 nM
HOP-92 NSCLC
  GI50: 170 nM
  TGI: 10500 nM
NCI-H226 lung
  GI50: 1410 nM
  TGI: 37900 nM
MDA-MB-231 breast
  GI50: < 10 nM
  TGI: < 14.9 nM
SK-MEL-5 melanoma
  GI50: < 10 nM
  TGI: 14.2 nM
EKVX NSCLC
  GI50: < 20.7 nM
  TGI: 32700 nM
OVCAR-8 ovarian
  GI50: < 10 nM
  TGI: 507 nM
HOP-62 NSCLC
  GI50: < 10 nM
  TGI: 26100 nM
RPMI-8226 leukemia
  GI50: < 10 nM
  TGI: 6600 nM
HCT-116 colon
  GI50: < 10 nM
  TGI: 963 nM
MOLT-4 leukemia
  GI50: < 10 nM
  TGI: 18900 nM
NCI-H460 lung
  GI50: < 10 nM
  TGI: 10500 nM
MCF7 breast
  GI50: < 10 nM
  TGI: > 38500 nM
COLO 205 colon
  GI50: 128 nM
  TGI: 1560 nM
IGROV1 ovarian
  GI50: < 10 nM
  TGI: 18900 nM
SK-MEL-28 melanoma
  GI50: < 10 nM
  TGI: 23300 nM
ACHN renal
  GI50: < 10 nM
  TGI: 20900 nM
CAKI-1 renal
  GI50: < 10 nM
  TGI: 22200 nM
DU-145 prostate
  GI50: < 10 nM
  TGI: > 33900 nM
K-562 leukemia
  GI50: < 10 nM
  TGI: > 100000 nM
HT29 colon
  GI50: 36.7 nM
  TGI: 1640 nM
MDA-MB-435
  GI50: < 10 nM
  TGI: 1290 nM
MDA-MB-468 breast
  GI50: < 10 nM
  TGI: < 10 nM
SF-295 CNS
  GI50: < 11 nM
  TGI: 1740 nM
CCRF-CEM leukemia
  GI50: < 10 nM
  TGI: 1770 nM
NCI-H522 lung
  GI50: < 10 nM
  TGI: < 10 nM
TK-10 renal
  GI50: 7980 nM
  TGI: 44300 nM
RXF 393 renal
  GI50: < 10 nM
  TGI: 14800 nM
786-0 renal
  GI50: 113 nM
  TGI: 21500 nM
SNB-19 CNS
  GI50: < 10 nM
  TGI: 31100 nM
SF-539 CNS
  GI50: < 10 nM
  TGI: < 10 nM
HS 578T breast
  GI50: < 10 nM
  TGI: 8130 nM
SK-OV-3 ovarian
  GI50: 191 nM
  TGI: 13600 nM
A549 NSCLC
  GI50: < 10 nM
  TGI: > 35000 nM
SR leukemia
  GI50: < 10 nM
  TGI: > 34000 nM
HL-60(TB) leukemia
  GI50: < 10 nM
  TGI: < 10 nM
M14 melanoma
  GI50: < 10 nM
  TGI: 2830 nM
HCT-15 colon
  GI50: < 10 nM
  TGI: 31300 nM
OVCAR-4 ovarian
  GI50: 475 nM
  TGI: > 78800 nM
SF-268 CNS
  GI50: < 22.6 nM
  TGI: 54700 nM
PC-3 prostate
  GI50: < 10 nM
  TGI: 25900 nM
SK-MEL-2 melanoma
  GI50: < 10 nM
  TGI: 5750 nM
OVCAR-5 ovarian
  GI50: < 10 nM
  TGI: 23300 nM
U251 CNS
  GI50: < 10 nM
  TGI: > 39200 nM
SW-620 colon
  GI50: < 10 nM
  TGI: > 69900 nM
NCI-H23 lung
  GI50: < 10 nM
  TGI: 9560 nM
BT-549 breast
  GI50: < 10 nM
  TGI: 1160 nM
MALME-3M melanoma
  GI50: < 10 nM
  TGI: 19300 nM
OVCAR-3 ovarian
  GI50: < 10 nM
  TGI: 4620 nM
LOX IMVI melanoma
  GI50: < 10 nM
  TGI: 13700 nM
HCC-2998 colon
  GI50: < 10 nM
  TGI: 15000 nM
A498 renal
  GI50: 20700 nM
  TGI: 61600 nM
SN12C renal
  GI50: < 10 nM
  TGI: 10700 nM
KM12 colon
  GI50: < 10 nM
  TGI: 26300 nM
NCI/ADR-RES ovarian
  GI50: < 10 nM
  TGI: < 10 nM
